Assay results taken from patent US4296233A, “Conjugate of amino sugar-steroid hormone” (Kureha Kagaku Kogyo Kabushiki Kaisha, priority 1978, dated 1981).
Converted amounts (≈) assume the structure as drawn. “And” between values parts separate entries of the source, which are not always exact repeats. Identical values can stand only once. Like-named read-outs stand apart in the source and are kept apart here.

What was measured:
[1] = Solubility of the conjugate in water; assay type: physicochemical; conditions: compared with conjugate at 3-position in Example 1
[2] = Solubility in a mixed solvent of 98 vol.% of water and 2 vol.% of ethanol (method of Example 1); assay type: physicochemical; conditions: for solubility: water/ethanol 98:2, organic solvent or mixture
Method: The conjugate is dissolved at 4.39×10^-5 mole/liter (30 mg/liter) in a mixed solvent of 98 vol.% of water and 2 vol.% of ethanol.
Solubility of dehydroepiandrosterone in the same mixed solvent measured by absorbance at 235 mμ is 0.24×10^-5 mole/liter.

[3] = tested on: antibody which is active to the ketone group at 17-position of dehydroepiandrosterone; test: Competitive immunoassay with tritium-labelled dehydroepiandrosterone bound to antibody; assay type: binding; conditions: FIG. 1, curves A and B
Method: In order to confirm the presence of C-D complex combined to AP, the combined product was analyzed by a competitive immunoassay method described in Seikagaku Jikken Koza (Biochemical Experiment Hormones (First) Page 217 to 252 (by Nippon Seikagaku Kai) (published by Tokyo Kagaku Dojin in 1977).
Dehydroepiandrosterone labelled by tritium (^3 H) was bound to the antibody which is active to the ketone group at 17-position of dehydroepiandrosterone. The combined product or dehydroepiandrosterone was added to the system of the antibody and the labelled compound to measure the amount of free ^3 H-dehydroepiandrosterone release from the system.

[4] = mixed solvent of 98 vol.% of water and 2 vol.% of ethanol, read-out: Solubility

Question: Which “solubility of the conjugate in water” value [1] does the source give for `C[C@]12CC[C@H]3[C@@H](CC=C4C[C@@H](O)CC[C@@]43C)[C@@H]1CC[C@@H]2OC(=O)COC(=O)[C@H]1O[C@@H](O[C@H]2[C@@H](O)[C@@H](CO)OC(O)[C@@H]2N)[C@H](O)[C@@H](O)[C@@H]1O` (mixture of isomers) [Example 3, Conjugate of dehydroepiandrosterone (hereinafter referring as to DHS) and chondrosine at 17-position with a binding agent of bromoacetyl bromide] here?
Answer: Its value is “substantially same with that of the conjugate at 3-position in Example 1”.

Question: For `C[C@]12CCC(OC(=O)[C@H]3OC(O)[C@H](N)[C@@H](O)[C@@H]3O)CC1=CC[C@@H]1[C@@H]2CC[C@]2(C)C(=O)CC[C@@H]12` (mixture of isomers) [Example 4, Conjugate of DHS and 2-amino-2-deoxy-α-D-glucuronic acid], which solubility [2, 4] is on record?
Answer: The solubility was 40.2 µM.

Question: For `C[C@]12CC[C@H](OC(=O)COC(=O)[C@H]3O[C@@H](O[C@H]4[C@@H](O)[C@@H](CO)OC(O)[C@@H]4N)[C@H](O)[C@@H](O)[C@@H]3O)CC1=CC[C@@H]1[C@@H]2CC[C@]2(C)C(=O)CC[C@@H]12` (stereo partly drawn) [Example 1, conjugate of 3β-hydroxy-5-androsten-17-one(dehydroepiandrosterone) at 3-position and 2-amino-2-deoxy-3-O-β-glucopyranurosyl-D-galactose (chondrosine) at 6-position with a binding agent of bromoacetyl bromide], which “solubility of the conjugate relative to the non-conjugate dehydroepiandrosterone” value ([2]; versus dehydroepiandrosterone, same mixed solvent) is on record?
Answer: Its value is “more than 18 times”.

Question: And the solubility [2, 4]?
Answer: The solubility was 43.9 µM and 30 µg/mL.

Question: With `C[C@]12CC[C@@H]3c4ccc(O)cc4CC[C@H]3[C@@H]1CC[C@@H]2OC(=O)COC(=O)[C@H]1O[C@@H](O[C@H]2[C@@H](O)[C@@H](CO)OC(O)[C@@H]2N)[C@H](O)[C@@H](O)[C@@H]1O` (stereo partly drawn) [Example 2, conjugate of 1,3,5(10)-estratriene-3,17β-diol (estradiol) and chondrosine at 17-position with a binding agent of bromoacetyl bromide] as the compound, how does the “solubility of the product relative to that of estradiol” value ([2]; versus estradiol, method of Example 1) read?
Answer: The value was “about 20 times”.

Question: What about the solubility [2, 4] of the same compound?
Answer: The solubility was 65 µM.

Question: With `C[C@]12CC[C@H](O)CC1=CC[C@@H]1[C@@H]2CC[C@]2(C)C(=O)CC[C@@H]12` [dehydroepiandrosterone, 3β-hydroxy-5-androsten-17-one, reference compound] as the compound, how does the solubility ([2]; same mixed solvent, measured by absorbance at 235 mμ, read-out: Solubility of dehydroepiandrosterone) read?
Answer: The solubility was 2.4 µM (≈ 0.692 µg/mL).

Question: What about the “amount of free ^3 H-dehydroepiandrosterone released / binding to the antibody” value [3] of the same compound?
Answer: The value was “the amount of free ^3 H-dehydroepiandrosterone was increased by the addition of the combined product or dehydroepiandrosterone whereby the their binding to the antibody is found”.
